{"source": "patent US9861624B2", "about": "“Method of treating cancer” (Exelixis, Inc., priority 2012, dated 2018)", "key": {"[1]": {"system": "CRPC patients with evidence of bone metastases", "assay": "Adaptive phase 2 trial (NCT00940225), case studies of the first three CRPC patients with bone metastases", "assay_type": "in vivo, human", "details": "for PSA / serum tALP levels: Week 18", "procedure": "In 2000, local disease recurrence was treated with radiation therapy. […] CAB with leuprolide and bicalutamide was initiated. […] All patients provided informed consent before study screening."}, "[2]": {"system": "murine pancreatic neuroendocrine tumor model", "assay": "Murine pancreatic neuroendocrine tumor model", "details": "mouse, in vivo"}, "xenograft tumor models": {"system": "xenograft tumor models", "assay": "Xenograft tumor models", "details": "in vivo"}}}
{"smiles": "COc1cc2nccc(Oc3ccc(NC(=O)C4(C(=O)Nc5ccc(F)cc5)CC4)cc3)c2cc1OC", "note": "[Compound 1, N-(4-{[6,7-bis(methyloxy)quinolin-4-yl]oxy}phenyl)-N′-(4-fluorophenyl)cyclopropane-1,1-dicarboxamide]", "values": [{"measurement": "increase in hemoglobin", "setting": "[1]; Patient 1, Week 2 compared with baseline", "value": 1.4, "unit": "g/dL"}, {"measurement": "radiotracer uptake by bone metastases on bone scan", "setting": "[1]; Patient 1, Week 6", "value": "dramatic decrease"}, {"measurement": "bone lesions", "setting": "[1]; Patient 1, Week 12", "value": "near complete resolution"}, {"measurement": "PSA", "setting": "[1]; Patient 1, 430 ng/mL at baseline", "value": 93.5, "unit": "ng/mL"}, {"measurement": "serum tALP levels", "setting": "[1]; Patient 1, 689 U/L at baseline", "value": 159, "unit": "U/L"}, {"measurement": "bone pain", "setting": "[1]; Patient 1, four weeks after start", "value": "significant reduction"}, {"measurement": "bone pain", "setting": "[1]; Patient 2, Week 4", "value": "reduction"}, {"measurement": "radiotracer uptake by bone lesions on bone scan", "setting": "[1]; Patient 2, Week 6", "value": "slight flair"}, {"measurement": "radiotracer uptake", "setting": "[1]; Patient 2, Week 12", "value": "substantial reduction"}, {"measurement": "hemoglobin increase", "setting": "[1]; Patient 2, Week 12 compared with baseline", "value": 1.8, "unit": "g/dL"}, {"measurement": "PSA peak", "setting": "[1]; Patient 2, Week 16, after placebo Week 12 to 15, crossed over to Compound 1 at Week 15", "value": "~6 fold of baseline"}, {"measurement": "PSA", "setting": "[1]; Patient 2, subsequent to crossing over to Compound 1 from placebo", "value": "2 fold of baseline"}, {"measurement": "hemoglobin increase", "setting": "[1]; Patient 3, Week 2 compared with baseline", "value": 2.2, "unit": "g/dL"}, {"measurement": "radiotracer uptake on bone scan", "setting": "[1]; Patient 3, Week 6", "value": "dramatic reduction"}, {"measurement": "bone lesions on bone scan", "setting": "[1]; Patient 3, Week 12", "value": "complete resolution"}, {"measurement": "PSA", "setting": "[1]; Patient 3, 2.4 ng/mL at screening", "value": 1.2, "unit": "ng/mL"}, {"measurement": "serum tALP levels", "setting": "[1]; Patient 3, 869 U/L at baseline", "value": 197, "unit": "U/L"}, {"measurement": "pain", "setting": "[1]; Patient 3, after three weeks", "value": "complete resolution"}, {"measurement": "uptake of radiotracer on bone scan", "setting": "[1]; all three patients, summary", "value": "striking decrease"}, {"measurement": "bone lesions", "setting": "[1]; three metastatic CRPC patients, summary", "value": "near complete resolution"}, {"measurement": "overall survival", "setting": "[2]", "value": "substantially improves"}, {"measurement": "tumor invasiveness and metastasis", "setting": "[2]", "value": "significantly reduces"}, {"measurement": "effect on tumors in xenograft tumor models", "setting": "xenograft tumor models", "value": "tumor regression"}]}
